{
  "source": "paper PMC7044277",
  "about": "(Nature Communications, 2020)",
  "type_in_all_cases": "cell-based",
  "key": {"320 non-olfactory GPCRs [1]": {"target": "T1, 320 non-olfactory GPCRs (Homo sapiens, UniProt P32247)", "T1 construct": "expressed in transfected cells; host or cells: HTLA cells", "T1 sequence (P32247 whole entry)": "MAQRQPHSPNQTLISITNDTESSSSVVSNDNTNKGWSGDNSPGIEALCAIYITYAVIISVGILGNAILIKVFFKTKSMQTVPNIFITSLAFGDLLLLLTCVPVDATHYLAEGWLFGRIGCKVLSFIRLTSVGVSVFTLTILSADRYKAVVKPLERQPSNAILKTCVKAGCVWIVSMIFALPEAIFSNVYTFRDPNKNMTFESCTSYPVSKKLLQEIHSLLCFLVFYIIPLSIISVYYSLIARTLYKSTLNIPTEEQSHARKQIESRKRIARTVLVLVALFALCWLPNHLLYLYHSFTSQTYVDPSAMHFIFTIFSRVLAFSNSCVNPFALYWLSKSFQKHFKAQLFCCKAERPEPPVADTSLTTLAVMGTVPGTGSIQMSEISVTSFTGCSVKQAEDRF"}, "320 non-olfactory GPCRs [2]": {"target": "T2, 320 non-olfactory GPCRs (Homo sapiens, UniProt Q9HB89)", "T2 construct": "expressed in transfected cells; host or cells: HTLA cells", "T2 sequence (Q9HB89 whole entry)": "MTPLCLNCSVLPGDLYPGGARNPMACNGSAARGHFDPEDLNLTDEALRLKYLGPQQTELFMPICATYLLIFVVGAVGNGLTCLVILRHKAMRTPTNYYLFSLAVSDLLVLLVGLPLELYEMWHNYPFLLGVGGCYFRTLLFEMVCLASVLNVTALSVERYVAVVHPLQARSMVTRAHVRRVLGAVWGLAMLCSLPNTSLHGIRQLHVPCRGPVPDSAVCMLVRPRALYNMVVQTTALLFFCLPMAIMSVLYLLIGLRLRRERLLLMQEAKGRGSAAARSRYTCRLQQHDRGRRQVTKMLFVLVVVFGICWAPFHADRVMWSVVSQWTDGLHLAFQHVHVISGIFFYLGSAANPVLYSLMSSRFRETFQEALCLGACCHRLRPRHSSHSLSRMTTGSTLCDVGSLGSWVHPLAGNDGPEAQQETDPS", "conditions": "receptor NMUR1; replicate values, Fig_4g"}, "320 non-olfactory GPCRs [3]": {"target": "T3, 320 non-olfactory GPCRs (Homo sapiens, UniProt P51582)", "T3 construct": "expressed in transfected cells; host or cells: HTLA cells", "T3 sequence (P51582 whole entry)": "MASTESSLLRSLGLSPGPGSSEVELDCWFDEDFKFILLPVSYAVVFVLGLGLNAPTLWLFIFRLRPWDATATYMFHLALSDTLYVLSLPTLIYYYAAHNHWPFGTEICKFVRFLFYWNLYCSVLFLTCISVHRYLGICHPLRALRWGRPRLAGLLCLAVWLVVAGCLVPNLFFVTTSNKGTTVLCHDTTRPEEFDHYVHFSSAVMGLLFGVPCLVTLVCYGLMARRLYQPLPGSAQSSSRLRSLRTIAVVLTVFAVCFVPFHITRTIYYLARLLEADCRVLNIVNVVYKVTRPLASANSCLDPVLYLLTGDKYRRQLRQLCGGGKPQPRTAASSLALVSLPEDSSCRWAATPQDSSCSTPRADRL", "conditions": "receptor P2RY4; replicate values, Fig_4g"}, "320 non-olfactory GPCRs [4]": {"target": "T4, 320 non-olfactory GPCRs (Homo sapiens, UniProt P30518)", "T4 construct": "expressed in transfected cells; host or cells: HTLA cells", "T4 sequence (P30518 whole entry)": "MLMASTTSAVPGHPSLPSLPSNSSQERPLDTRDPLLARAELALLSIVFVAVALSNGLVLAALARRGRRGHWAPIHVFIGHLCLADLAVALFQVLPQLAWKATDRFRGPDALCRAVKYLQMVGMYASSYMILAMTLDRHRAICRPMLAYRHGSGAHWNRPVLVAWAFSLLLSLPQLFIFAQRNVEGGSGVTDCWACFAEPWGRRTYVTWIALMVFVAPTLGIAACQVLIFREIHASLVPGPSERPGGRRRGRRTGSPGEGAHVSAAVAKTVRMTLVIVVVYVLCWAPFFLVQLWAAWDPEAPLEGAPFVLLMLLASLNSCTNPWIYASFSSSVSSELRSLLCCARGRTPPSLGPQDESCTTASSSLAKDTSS"}},
  "note": "Values joined by “and” are separate entries in the source; they are usually repeats but may differ in a detail not shown here. Equal entries are not always repeated.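 For Fold of Basal in this document: compound tested at 1 µM final concentration.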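 For GPCRome agonism screen response in this document: fold over basal response of each receptor without drug.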",
  "data": [
    {"smiles": "CCOc1cccc2cc(C(C)NCC3(O)CCCCC3)oc12", "note": "(stereo not shown) [O4LE6]", "values": [
      {"measurement": "Fold of Basal", "setting": "320 non-olfactory GPCRs [1]", "value": "1.192 and 1.354 and 1.033 and 1.091"},
      {"measurement": "GPCRome agonism screen response", "setting": "320 non-olfactory GPCRs [2]", "value": "1.001 and 1.011 and 0.9191 and 1.865"},
      {"measurement": "GPCRome agonism screen response", "setting": "320 non-olfactory GPCRs [3]", "value": "0.9286 and 1.003 and 1.314 and 2.009"},
      {"measurement": "Fold of Basal", "setting": "320 non-olfactory GPCRs [4]", "value": "1.01 and 0.8337 and 0.9883 and 1.294"}
    ]}
  ]
}
